System: MV-4-11 cells
Experiment: Gene expression microarray analysis (Affymetrix PrimeView) and GSEA
Type: cell-based, human
Design: RFU PODN (11730768_x_at) / Fold change /veh PODN (11730768_x_at) / RFU LINC00158 (11744669_a_at) / Fold change /veh LINC00158 (11744669_a_at) / RFU DUSP10 (11751237_a_at) / Fold change /veh DUSP10 (11751237_a_at) / RFU ID3 (11757404_x_at) / Fold change /veh ID3 (11757404_x_at) / RFU PLEKHG5 (11737974_s_at) / Fold change /veh PLEKHG5 (11737974_s_at) / RFU LRRC4B (11730491_at) / Fold change /veh LRRC4B (11730491_at) / RFU GIMAP4 (11747438_a_at) / Fold change /veh GIMAP4 (11747438_a_at) / RFU KRT8 (11758183_x_at) / Fold change /veh KRT8 (11758183_x_at) / RFU CNN1 (11734310_a_at) / Fold change /veh CNN1 (11734310_a_at) / RFU VPS37D (11726825_at) / Fold change /veh VPS37D (11726825_at) / RFU C10orf10 (11716522_x_at) / Fold change /veh C10orf10 (11716522_x_at) / RFU KIR2DL2 /// KIR2DL4 /// KIR2DL5A /// KIR2DL5B /// KIR2DS1 /// KIR2DS2 /// KIR2DS3 /// KIR2DS4 /// KIR3DL3 /// KIR3DL3 /// KIR3DS1 (11738374_at) / Fold change /veh KIR2DL2 /// KIR2DL4 /// KIR2DL5A /// KIR2DL5B /// KIR2DS1 /// KIR2DS2 /// KIR2DS3 /// KIR2DS4 /// KIR3DL3 /// KIR3DL3 /// KIR3DS1 (11738374_at) / RFU C1QL1 (11718748_at) / Fold change /veh C1QL1 (11718748_at) / RFU TMPRSS4 (11747572_a_at) / Fold change /veh TMPRSS4 (11747572_a_at) / RFU HAMP (11756126_x_at) / Fold change /veh HAMP (11756126_x_at) / RFU RNFT2 (11725882_a_at) / Fold change /veh RNFT2 (11725882_a_at) / RFU NR4A2 (11747474_a_at) / Fold change /veh NR4A2 (11747474_a_at) / RFU ABCC12 (11746883_a_at) / Fold change /veh ABCC12 (11746883_a_at) / RFU TMEM136 (11760407_x_at) / Fold change /veh TMEM136 (11760407_x_at) / RFU CLDN22 /// WWC2 (11732394_at) / Fold change /veh CLDN22 /// WWC2 (11732394_at) / RFU HLA-DPB1 (11760878_x_at) / Fold change /veh HLA-DPB1 (11760878_x_at) / RFU SPINT1 (11716480_a_at) / Fold change /veh SPINT1 (11716480_a_at) / RFU GAP43 (11754022_s_at) / Fold change /veh GAP43 (11754022_s_at) / RFU A4GNT (11735810_at) / Fold change /veh A4GNT (11735810_at) / RFU PRB3 (11715151_x_at) / Fold change /veh PRB3 (11715151_x_at) / RFU TUBB4B (11761932_at) / Fold change /veh TUBB4B (11761932_at) / RFU CAPN14 (11732068_a_at) / Fold change /veh CAPN14 (11732068_a_at) / RFU TMCC2 (11721928_a_at) / Fold change /veh TMCC2 (11721928_a_at) / RFU IRGQ (11745062_a_at) / Fold change /veh IRGQ (11745062_a_at) / RFU FAM174B (11720279_a_at) / Fold change /veh FAM174B (11720279_a_at) / RFU TMPRSS4 (11748680_a_at) / Fold change /veh TMPRSS4 (11748680_a_at) / RFU FAM212B (11763350_a_at) / Fold change /veh FAM212B (11763350_a_at) / RFU PLEKHG5 (11743358_a_at) / Fold change /veh PLEKHG5 (11743358_a_at) / RFU ZSCAN30 (11745921_a_at) / Fold change /veh ZSCAN30 (11745921_a_at) / RFU CMKLR1 (11741424_a_at) / Fold change /veh CMKLR1 (11741424_a_at) / RFU LOC101060620 /// MAPK8IP1 (11723275_at) / Fold change /veh LOC101060620 /// MAPK8IP1 (11723275_at) / RFU SPTSSB (11747773_x_at) / Fold change /veh SPTSSB (11747773_x_at) / RFU PRSS12 (11739890_at) / Fold change /veh PRSS12 (11739890_at) / RFU BIN1 (11741810_x_at) / Fold change /veh BIN1 (11741810_x_at) / RFU WNT11 (11732464_a_at) / Fold change /veh WNT11 (11732464_a_at) / RFU C10orf10 (11716521_a_at) / Fold change /veh C10orf10 (11716521_a_at) / RFU C5orf56 (11738089_at) / Fold change /veh C5orf56 (11738089_at) / RFU CYB561 (11721691_x_at) / Fold change /veh CYB561 (11721691_x_at) / RFU ANKRD19P (11752326_a_at) / Fold change /veh ANKRD19P (11752326_a_at) / RFU OR2T12 /// OR2T33 /// OR2T8 (11738714_s_at) / Fold change /veh OR2T12 /// OR2T33 /// OR2T8 (11738714_s_at) / RFU VCAN (11748164_a_at) / Fold change /veh VCAN (11748164_a_at) / RFU JSRP1 (11732532_at) / Fold change /veh JSRP1 (11732532_at) / RFU KRTAP10-11 (11738290_x_at) / Fold change /veh KRTAP10-11 (11738290_x_at) / RFU MYO3A (11730013_a_at) / Fold change /veh MYO3A (11730013_a_at) / RFU EBF3 (11725865_a_at) / Fold change /veh EBF3 (11725865_a_at) / RFU CAMK2N1 (11719241_x_at) / Fold change /veh CAMK2N1 (11719241_x_at) / RFU C5orf56 (11738088_a_at) / Fold change /veh C5orf56 (11738088_a_at) / RFU OLFML3 (11715873_a_at) / Fold change /veh OLFML3 (11715873_a_at) / RFU LOC100653217 /// NTM (11731650_a_at) / Fold change /veh LOC100653217 /// NTM (11731650_a_at) / RFU MAPK11 (11762145_a_at) / Fold change /veh MAPK11 (11762145_a_at) / RFU FIZ1 (11724087_x_at) / Fold change /veh FIZ1 (11724087_x_at) / RFU OASL (11726364_x_at) / Fold change /veh OASL (11726364_x_at) / RFU SOX15 (11748057_x_at) / Fold change /veh SOX15 (11748057_x_at) / RFU CD79A (11719716_a_at) / Fold change /veh CD79A (11719716_a_at) / RFU HIST1H1D (11736915_at) / Fold change /veh HIST1H1D (11736915_at) / RFU CASKIN2 (11723855_a_at) / Fold change /veh CASKIN2 (11723855_a_at) / RFU LOC730098 (11760151_x_at) / Fold change /veh LOC730098 (11760151_x_at) / RFU OR4N2 (11742367_at) / Fold change /veh OR4N2 (11742367_at) / RFU PRRT2 (11749266_a_at) / Fold change /veh PRRT2 (11749266_a_at) / RFU SNX32 (11753110_a_at) / Fold change /veh SNX32 (11753110_a_at) / RFU CDHR5 (11726645_a_at) / Fold change /veh CDHR5 (11726645_a_at) / RFU RCAN1 (11760418_a_at) / Fold change /veh RCAN1 (11760418_a_at) / RFU FAM167A (11723789_a_at) / Fold change /veh FAM167A (11723789_a_at) / RFU FAM26E (11764081_at) / Fold change /veh FAM26E (11764081_at) / RFU ISYNA1 (11749810_s_at) / Fold change /veh ISYNA1 (11749810_s_at) / RFU ACY1 (11761880_at) / Fold change /veh ACY1 (11761880_at) / RFU 11764098_at / Fold change /veh 11764098_at / RFU SAMD14 (11745864_x_at) / Fold change /veh SAMD14 (11745864_x_at) / RFU NPB (11741838_a_at) / Fold change /veh NPB (11741838_a_at) / RFU TMPRSS6 (11731388_a_at) / Fold change /veh TMPRSS6 (11731388_a_at) / RFU KRTAP10-2 (11738614_at) / Fold change /veh KRTAP10-2 (11738614_at) / RFU ARHGAP8 /// PRR5-ARHGAP8 (11727945_x_at) / Fold change /veh ARHGAP8 /// PRR5-ARHGAP8 (11727945_x_at) / RFU KRTAP5-7 /// NADSYN1 (11734609_at) / Fold change /veh KRTAP5-7 /// NADSYN1 (11734609_at) / RFU RASL12 (11751679_a_at) / Fold change /veh RASL12 (11751679_a_at) / RFU CDKN2B (11736163_a_at) / Fold change /veh CDKN2B (11736163_a_at) / RFU PRF1 (11729649_at) / Fold change /veh PRF1 (11729649_at) / RFU, ZNF638 /// ZNF638-IT1 / Fold change vs veh, ZNF638 /// ZNF638-IT1 / RFU, PANK3 / Fold change vs veh, PANK3 / RFU, SH3YL1 / Fold change vs veh, SH3YL1 / RFU, ZEB2 / Fold change vs veh, ZEB2 / RFU, NRIP1 / Fold change vs veh, NRIP1 / RFU, PTTG1IP / Fold change vs veh, PTTG1IP / RFU, CAPN2 / Fold change vs veh, CAPN2 / RFU, MED14 / Fold change vs veh, MED14 / RFU, SNORA58 / Fold change vs veh, SNORA58 / RFU, C1orf63 / Fold change vs veh, C1orf63 / RFU, LRRFIP1 / Fold change vs veh, LRRFIP1 / RFU, NDUFAF7 / Fold change vs veh, NDUFAF7 / RFU, SLC12A2 / Fold change vs veh, SLC12A2 / RFU, IBTK / Fold change vs veh, IBTK / RFU, ESF1 / Fold change vs veh, ESF1 / Fold change vs veh, TMEM50B / RFU, TAOK1 / Fold change vs veh, TAOK1 / RFU, ACBD3 / Fold change vs veh, ACBD3 / RFU, TMA16 / Fold change vs veh, TMA16 / RFU, RWDD3 / Fold change vs veh, RWDD3 / RFU, BCAT1 / Fold change vs veh, BCAT1 / RFU, EDEM3 / Fold change vs veh, EDEM3 / RFU, TMEM33 / Fold change vs veh, TMEM33 / RFU, WDR75 / Fold change vs veh, WDR75 / RFU, AHCTF1 / Fold change vs veh, AHCTF1 / RFU, TFRC / Fold change vs veh, TFRC / RFU, ZDHHC17 / Fold change vs veh, ZDHHC17 / RFU, NOM1 / Fold change vs veh, NOM1 / RFU, ARL8B / Fold change vs veh, ARL8B / RFU, ZBTB11 / Fold change vs veh, ZBTB11 / RFU, TAMM41 / Fold change vs veh, TAMM41 / RFU, KIAA1704 /// LOC100996395 / Fold change vs veh, KIAA1704 /// LOC100996395 / RFU, ING1 / Fold change vs veh, ING1 / RFU, TRMT61B / Fold change vs veh, TRMT61B / RFU, FUBP3 / Fold change vs veh, FUBP3 / RFU, TP53 / Fold change vs veh, TP53 / RFU, TNKS2 / Fold change vs veh, TNKS2 / RFU, ZFP14 / Fold change vs veh, ZFP14 / RFU, ACTR2 / Fold change vs veh, ACTR2 / RFU, PPP3R1 / Fold change vs veh, PPP3R1 / RFU, PIK3R1 / Fold change vs veh, PIK3R1 / RFU, HNRNPA1 / Fold change vs veh, HNRNPA1 / RFU, RNF170 / Fold change vs veh, RNF170 / RFU, ZNF28 / Fold change vs veh, ZNF28 / RFU, RNGTT / Fold change vs veh, RNGTT / RFU, OGT / Fold change vs veh, OGT / RFU, BRD1 / Fold change vs veh, BRD1 / RFU, MARS / Fold change vs veh, MARS / RFU, ZNF655 / Fold change vs veh, ZNF655 / RFU, FAHD1 / Fold change vs veh, FAHD1 / RFU, BDP1 / Fold change vs veh, BDP1 / RFU, LRRCC1 / Fold change vs veh, LRRCC1 / RFU, ARID1A / Fold change vs veh, ARID1A / RFU, ZNF146 / Fold change vs veh, ZNF146 / RFU, ZNF330 / Fold change vs veh, ZNF330 / RFU, GPN3 / Fold change vs veh, GPN3 / RFU, C9orf123 / Fold change vs veh, C9orf123 / RFU, N4BP2L2 / Fold change vs veh, N4BP2L2 / RFU, ARFIP1 / Fold change vs veh, ARFIP1 / RFU, FAM179B / Fold change vs veh, FAM179B / RFU, BCL10 / Fold change vs veh, BCL10 / RFU, UHRF1BP1L / Fold change vs veh, UHRF1BP1L / RFU, BET1 / Fold change vs veh, BET1 / RFU, CNOT2 / Fold change vs veh, CNOT2 / RFU, ZNF268 / Fold change vs veh, ZNF268 / Fold change vs veh, ZNF507 / RFU, DGCR2 / Fold change vs veh, DGCR2 / RFU, WDSUB1 / Fold change vs veh, WDSUB1 / Fold change vs veh, HSP90B1 /// MIR3652 / RFU, ADSS / Fold change vs veh, ADSS / RFU, GK / Fold change vs veh, GK / RFU, ZNF148 / Fold change vs veh, ZNF148 / RFU, TAF9 / Fold change vs veh, TAF9 / RFU, SLC1A5 / Fold change vs veh, SLC1A5 / RFU, SLMO2 / Fold change vs veh, SLMO2 / RFU, ABCC4 / Fold change vs veh, ABCC4 / RFU, LOC101060439 /// RAP1B / Fold change vs veh, LOC101060439 /// RAP1B / RFU, RFX7 / Fold change vs veh, RFX7 / RFU, GTPBP10 / Fold change vs veh, GTPBP10 / RFU, CNEP1R1 / Fold change vs veh, CNEP1R1 / RFU, BIVM-ERCC5 /// ERCC5 / Fold change vs veh, BIVM-ERCC5 /// ERCC5 / RFU, ILF3 / Fold change vs veh, ILF3 / RFU 11762660_at / Fold change /veh 11762660_at / RFU VCAN (11757783_s_at) / Fold change /veh VCAN (11757783_s_at) / RFU DDX43 (11728927_at) / Fold change /veh DDX43 (11728927_at) / RFU KRT8 (11758188_x_at) / Fold change /veh KRT8 (11758188_x_at) / RFU NKD1 (11759106_at) / Fold change /veh NKD1 (11759106_at) / RFU SRD5A1 (11742802_a_at) / Fold change /veh SRD5A1 (11742802_a_at) / RFU TPSAB1 /// TPSB2 (11721975_s_at) / Fold change /veh TPSAB1 /// TPSB2 (11721975_s_at) / RFU GSTM3 (11746129_a_at) / Fold change /veh GSTM3 (11746129_a_at) / RFU IL23R (11737362_x_at) / Fold change /veh IL23R (11737362_x_at) / RFU TMEM51 (11727254_a_at) / Fold change /veh TMEM51 (11727254_a_at) / RFU PIWIL2 (11732686_x_at) / Fold change /veh PIWIL2 (11732686_x_at) / RFU ORM1 (11744905_x_at) / Fold change /veh ORM1 (11744905_x_at) / RFU CCDC152 (11743942_at) / Fold change /veh CCDC152 (11743942_at) / RFU ECM1 (11717891_a_at) / Fold change /veh ECM1 (11717891_a_at) / RFU IL23R (11748794_a_at) / Fold change /veh IL23R (11748794_a_at) / RFU TNFAIP8L3 (11732012_x_at) / Fold change /veh TNFAIP8L3 (11732012_x_at) / RFU MBOAT4 (11741988_at) / Fold change /veh MBOAT4 (11741988_at) / RFU 11764193_at / Fold change /veh 11764193_at / RFU TMEM53 (11763286_at) / Fold change /veh TMEM53 (11763286_at) / RFU MAGEB2 (11727129_at) / Fold change /veh MAGEB2 (11727129_at) / RFU TMEM200A (11744735_a_at) / Fold change /veh TMEM200A (11744735_a_at) / RFU CCDC152 (11751479_a_at) / Fold change /veh CCDC152 (11751479_a_at) / RFU FAM211A (11726209_a_at) / Fold change /veh FAM211A (11726209_a_at) / RFU RGS16 (11746705_a_at) / Fold change /veh RGS16 (11746705_a_at) / RFU VCAN (11755009_s_at) / Fold change /veh VCAN (11755009_s_at) / RFU RHOB (11743442_s_at) / Fold change /veh RHOB (11743442_s_at) / RFU RGS16 (11720943_a_at) / Fold change /veh RGS16 (11720943_a_at) / RFU RGS16 (11720944_at) / Fold change /veh RGS16 (11720944_at) / RFU, VPS4B / Fold change vs veh, VPS4B / RFU, CREB1 / Fold change vs veh, CREB1 / RFU, DNAJC13 / Fold change vs veh, DNAJC13 / RFU, GNAQ / Fold change vs veh, GNAQ / RFU, CDK5R1 / Fold change vs veh, CDK5R1 / RFU, ZRANB3 / Fold change vs veh, ZRANB3 / RFU, CUL4A / Fold change vs veh, CUL4A / RFU, CCNY / Fold change vs veh, CCNY / RFU, UFL1 / Fold change vs veh, UFL1 / RFU, COG3 / Fold change vs veh, COG3 / RFU, DIAPH2 / Fold change vs veh, DIAPH2 / RFU, SKA2 / Fold change vs veh, SKA2 / RFU, AFF3 / Fold change vs veh, AFF3 / RFU, LMF1 / Fold change vs veh, LMF1 / RFU, IPO11 / Fold change vs veh, IPO11 / RFU, DFFB / Fold change vs veh, DFFB / RFU, FOXP1 / Fold change vs veh, FOXP1 / RFU, CARD8 / Fold change vs veh, CARD8 / RFU, STRN3 / Fold change vs veh, STRN3 / RFU, ADK / Fold change vs veh, ADK / RFU, RASSF2 / Fold change vs veh, RASSF2 / RFU, WIPF1 / Fold change vs veh, WIPF1 / RFU, LARP1B / Fold change vs veh, LARP1B / RFU, RASA1 / Fold change vs veh, RASA1 / RFU, RB1 / Fold change vs veh, RB1 / RFU, PPFIA1 / Fold change vs veh, PPFIA1 / RFU, MAT2A / Fold change vs veh, MAT2A / RFU, CCT5 / Fold change vs veh, CCT5 / RFU, WDR92 / Fold change vs veh, WDR92 / RFU, CUX1 / Fold change vs veh, CUX1 / RFU, TTC7A / Fold change vs veh, TTC7A / RFU, TMEM135 / Fold change vs veh, TMEM135 / RFU, DEPTOR / Fold change vs veh, DEPTOR / RFU, CPM / Fold change vs veh, CPM / RFU, DNAJB6 / Fold change vs veh, DNAJB6 / RFU, CACNA2D3 / Fold change vs veh, CACNA2D3 / RFU, DTX4 / Fold change vs veh, DTX4 / RFU, TFCP2 / Fold change vs veh, TFCP2 / RFU, GMCL1 /// GMCL1P1 / Fold change vs veh, GMCL1 /// GMCL1P1 / RFU, AEBP2 / Fold change vs veh, AEBP2 / RFU, SNHG1 /// SNORD22 /// SNORD25 /// SNORD26 /// SNORD27 /// SNORD28 /// SNORD29 /// SNORD31 / Fold change vs veh, SNHG1 /// SNORD22 /// SNORD25 /// SNORD26 /// SNORD27 /// SNORD28 /// SNORD29 /// SNORD31 / Fold change (Aza/veh), C12orf56 (ProbeSet 11735607_a_at) / Fold change (ACY-1035/veh), C12orf56 (ProbeSet 11735607_a_at) / Fold change (Aza/veh), FGFR1OP (ProbeSet 11751329_s_at) / Fold change (ACY-1035/veh), FGFR1OP (ProbeSet 11751329_s_at) / Fold change (Aza/veh), VPS36 (ProbeSet 11739960_a_at) / Fold change (ACY-1035/veh), VPS36 (ProbeSet 11739960_a_at) / RFU SYPL1 (11715823_x_at) / Fold change /veh SYPL1 (11715823_x_at) / RFU IGFBP7 (11715501_s_at) / Fold change /veh IGFBP7 (11715501_s_at) / RFU REEP3 (11722064_at) / Fold change /veh REEP3 (11722064_at) / RFU IGLL1 (11728026_x_at) / Fold change /veh IGLL1 (11728026_x_at): dose or concentration left out as unconfirmed
Conditions: MV-4-11 cells, 48 hours

SMILES: Nc1ccc(-c2cccs2)cc1NC(=O)c1ccc2c(c1)cc(C1CC1)n2CCN1CCOCC1 [ACY-1035]
- RFU CMKLR1 (11741424_a_at): 17.99 RFU
